Assay results as given in patent publication US6362369B1, “Phthalic acid diamide derivatives fluorine-containing aniline compounds as starting material, agricultural and horticultural insecticides, and a method for application of the insecticides” (Nihon Nohyaku Co., Ltd., priority 1997, dated 2002).

Assays:
Format in all cases: in vivo
[1] = test system: rice leafroller (Cnaphalocrocis medinalis); assay: Insecticidal effect on rice leafroller (Test Example 3); settings: 500 ppm, 25° C., humidity 70%; for Insecticidal effect, Test Example 3: rice lamina immersed; for Insecticidal effect, Test Example 3 / Insecticidal effect on rice leafroller (Test Example 3), judged grade: four days after inoculation; for Insecticidal effect (Test Example 3), judged from mortality / Insecticidal effect on rice leafroller (Test Example 3), judged grade: rice lamina dip; for Insecticidal effect (Test Example 3), judged from mortality: 4 days after inoculation; for Insecticidal effect on rice leafroller (Test Example 3), judged grade: third-instar larvae
How it was run: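 Insecticidal effect is judged by a predefined criterion from dead/alive counts four days after infesting air-dried lamina with third-instar larvae, kept on moistened filter paper at 25° C, 70% humidity.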

[2] = test system: diamondback moth (Plutella xylostella); assay: Insecticidal effect on diamondback moth (Test Example 1); settings: for Insecticidal effect, Test Example 1 / Insecticidal effect (Test Example 1), judged from mortality: diamondback moth; for Insecticidal effect (Test Example 1), judged from mortality: judged by the criterion of Test Example 1; for Insecticidal effect on diamondback moth (Test Example 1), judged grade: mortality judged according to the criterion shown in Test Example 1
How it was run: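 Triplicate groups of 10 insects were scored: six days after immersion of oviposited Chinese cabbage seedlings and holding at 25 °C post air-drying, hatched larvae were counted. Mortality derived from these counts and insecticidal effect judged by a set criterion.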

[3] = test system: common cutworm (Spodoptera Litura); assay: Insecticidal effect on common cutworm (Test Example 2); settings: 500 ppm, 25° C.; for Insecticidal effect, Test Example 2: cabbage leaf immersed; for Insecticidal effect, Test Example 2 / Insecticidal effect on common cutworm (Test Example 2), judged grade: eight days after inoculation; for Insecticidal effect (Test Example 2), judged from mortality / Insecticidal effect on common cutworm (Test Example 2), judged grade: cabbage leaf dip; for Insecticidal effect (Test Example 2), judged from mortality: 8 days after inoculation; for Insecticidal effect on common cutworm (Test Example 2), judged grade: second-instar larvae
How it was run: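 Mortality was scored 8 days post-inoculation, using three groups of 10 second-instar larvae kept at 25 °C in closed 9 cm dishes on air-dried treated material. The insecticidal effect was graded from calculated mortality by a set criterion.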

[4] = rice leafroller third-instar larvae
[5] = mortality judged by criterion of Test Example 1
[6] = common cutworm second-instar larvae
[7] = third-instar larvae of rice leafroller
[8] = judged by the mortality criterion of Test Example 1
[9] = second-instar larvae of common cutworm

Row | SMILES | Insecticidal effect, Test Example 3 [1, 4] | Insecticidal effect, Test Example 1 [2, 5] | Insecticidal effect, Test Example 2 [3, 6] | Insecticidal effect, Test Example 3 [1, 7] | Insecticidal effect, Test Example 1 [2, 8] | Insecticidal effect, Test Example 2 [3, 9] | further results
1 | CC(C)NC(=O)c1c(I)cccc1C(=O)Nc1ccc2c(c1)OC(F)(F)O2 [compound 1102] | A (100) | A (100) | A (100) | – | – | – | –
2 | CC(C)NC(=O)c1c(I)cccc1C(=O)Nc1ccc(I)cc1 [compound 347] | – | – | – | C (89-80) | A (100) | B (99-90) | –
3 | Cc1cc(C(F)(C(F)(F)F)C(F)(F)F)ccc1NC(=O)c1c(I)cccc1C(=O)NC(C)C [compound 439] | – | – | – | A (100) | A (100) | A (100) | –
4 | CC(C)NC(=O)c1c(I)cccc1C(=O)Nc1ccc2c(c1)OC(F)(F)C2(F)F [compound 974] | A (100) | A (100) | A (100) | – | – | – | –
5 | Cc1cc(OC(F)(F)C(F)(F)Br)ccc1NC(=O)c1cccc(I)c1C(=O)NC(C)C [compound 380] | – | – | – | A (100) | A (100) | A (100) | –
6 | CC(C)NC(=O)c1c(I)cccc1C(=O)Nc1ccc(C(F)(F)C(F)(F)C(F)(F)F)cc1 [compound 350] | – | – | – | A (100) | A (100) | A (100) | –
7 | Cc1cc(OC(F)(F)C(F)OC(F)(F)F)ccc1NC(=O)c1cccc(Cl)c1C(=O)NC(C)C (stereo not drawn) [compound 149] | – | – | – | A (100) | A (100) | A (100) | –
8 | CC(C)NC(=O)c1c(I)cccc1C(=O)Nc1ccc(OC(F)F)c(F)c1 [compound 382] | – | – | – | A (100) | A (100) | B (99-90) | –
9 | CC(C)NC(=O)c1c(I)cccc1C(=O)Nc1cc2c(cc1Cl)OC(F)(F)C(F)(F)O2 [compound 1625] | – | – | – | – | – | – | Insecticidal effect (Test Example 3), judged from mortality [1, 7]: A (100); Insecticidal effect (Test Example 1), judged from mortality [2]: A (100); Insecticidal effect (Test Example 2), judged from mortality [3, 9]: A (100)
10 | COCCNC(=O)c1c(I)cccc1C(=O)Nc1ccc(C(F)(F)C(F)(F)F)cc1C [compound 981] | A (100) | A (100) | A (100) | – | – | – | –
11 | CCN(CC)C(=O)c1c(I)cccc1C(=O)Nc1ccc(C(O)(C(F)(F)F)C(F)(F)F)cc1 [compound 1130] | A (100) | A (100) | A (100) | – | – | – | –
12 | CCC(C)(C)NC(=O)c1c(I)cccc1C(=O)Nc1ccc(OC(F)F)cc1C [compound 1568] | – | – | – | – | – | – | Insecticidal effect (Test Example 3), judged from mortality [1, 7]: A (100); Insecticidal effect (Test Example 1), judged from mortality [2]: A (100); Insecticidal effect (Test Example 2), judged from mortality [3, 9]: A (100)
13 | Cc1cc(OC(F)(F)Br)ccc1NC(=O)c1cccc(I)c1C(=O)NC(C)(C)C [compound 1051] | A (100) | A (100) | A (100) | – | – | – | –
14 | Cc1cc(C(F)(F)F)ccc1NC(=O)c1cccc(I)c1C(=O)NC(C)C [compound 371] | – | – | – | A (100) | A (100) | A (100) | –
15 | Cc1ccc(F)cc1NC(=O)c1c(F)cccc1C(=O)NC(C)C [compound 549] | – | – | – | – | – | – | Insecticidal effect on rice leafroller (Test Example 3), judged grade [1]: D (79-50); Insecticidal effect on diamondback moth (Test Example 1), judged grade [2]: A (100); Insecticidal effect on common cutworm (Test Example 2), judged grade [3]: A (100)
16 | Cc1cc(C#N)ccc1NC(=O)c1cccc(Cl)c1C(=O)NC(C)C [compound 1330] | A (100) | A (100) | A (100) | – | – | – | –
17 | Cc1cc(C(F)(F)C(F)(F)F)ccc1NC(=O)c1cccc(Cl)c1C(=O)NC(C)(C)C [compound 932] | – | – | – | – | – | – | Insecticidal effect on rice leafroller (Test Example 3), judged grade [1]: A (100); Insecticidal effect on diamondback moth (Test Example 1), judged grade [2]: A (100); Insecticidal effect on common cutworm (Test Example 2), judged grade [3]: A (100)
